Data from patent US9107954B2, “Bivalent ligands for the treatment of neurological disorders” (Virginia Commonwealth University, priority 2012, dated 2015).

Columns and labels:
[1] = biological target: mu opioid receptor (Homo sapiens (Human), UniProt P35372); experiment: biochemical; settings: read-out: Emax, 35S-GTP[γS] binding
Procedure: MOR/CHO cell culture and membrane homogenate preparation followed literature report^52.
For competition binding assay (agonists or antagonists), Hill plots linear regression analysis and the Cheng-Prusoff equation were applied to determine the IC50 and Ki values. In [^35S]GTPγS binding assays, agonist concentration effect curves were fit by non-linear regression to obtain Emax and EC50 values; antagonist inhibition of agonist-stimulated [^35S]GTPγS binding was analyzed by Hill analysis and AD50 values were corrected to Ki values using the Cheng-Prusoff equation. All analyses were using Prism 4.0.

[2] = test system: CCR5; experiment: Flow cytometry of CCR5 immunofluorescence in HIV-1 infected primary human astrocytes; type: cell-based; settings: maraviroc co-exposure; bivalent ligand ± morphine
Procedure: (§1) MOR and CCR5 immunoreactivity were detected by direct immunofluorescence in astroglial cells by flow cytometric analysis. Cells were washed in phosphate-buffered saline (PBS)-0.1% bovine serum albumin (BSA) buffer and incubated with primary MOR antibody followed by a secondary antibody conjugated to allophycocyanin (APC) (Biolegend, Inc; catalog #408001) and Alexa Fluor® 488 conjugated anti-mouse CD195 (CCR5) antibody (Biolegend, Inc; catalog #107008) in permeabilization buffer (PBS-0.1% BSA-0.1% Triton X-100) at a 1:500 dilution. Fluorescence was measured from 10,000 gated cells per treatment in each experiment using a FACSCanto II flow cytometer (BD Biosciences, San Jose, Calif.). Auto-fluorescence was compensated by setting the detector voltage to the minimum level that discriminates between auto-fluorescence and specific immunofluorescence in both negative and positive controls. Isotype control antibodies were used to define settings in histogram plot analyses.
(§2) We quantitatively analyzed the effect of MVC and the bivalent compound on CCR5 and MOR expression levels in virally infected astrocytes by flow cytometry. […] Approximately 20,000 events were analyzed per treatment condition in each experiment and size discrimination was used as a crude method for viability determination.

[3] = test system: CCR5 and MOR; experiment: Flow cytometry of CCR5 and MOR co-localization in HIV-1 infected primary human astrocytes; type: cell-based
Procedure: as §1, §2

[4] = test system: TNF-α; experiment: Cytokine release ELISA, HIV-1 infected astroglia supernatant: TNF-α; type: cell-based, human; settings: 18-20 h; bivalent ligand ± morphine
Procedure: (§3) The protein levels of the cytokines TNF-α, IL-6, IL-1β and the chemokine RANTES were measured by ELISA (Quantikine kits; R&D Systems Minneapolis, Minn.).
(§4) After 18-20 h exposure, supernatant was removed and analyzed by ELISA to quantitatively analyze the release of the cytokines TNF-α, IL-1β and IL-6 and the chemokine RANTES.

[5] = test system: IL-6; experiment: Cytokine release ELISA, HIV-1 infected astroglia supernatant: IL-6; type: cell-based, human; settings: 18-20 h; bivalent ligand ± morphine
Procedure: as §3, §4

[6] = test system: RANTES; experiment: Chemokine release ELISA, HIV-1 infected astroglia supernatant: RANTES; type: cell-based, human; settings: 18-20 h; bivalent ligand ± morphine
Procedure: as §3, §4

[7] = test system: human astrocytes; experiment: Cytotoxicity assay, AOPI live/dead labeling of human astrocytes; type: cell-based
Procedure: Cell viability was assessed by measurement of both live and dead cells using dual (green/red) fluorescence labeling with AOPI analyzed with Cellometer Vision CBA (Nexcelom Bioscience LLC).
To determine whether HIV-1±morphine exposure affected astrocyte viability in the presence or absence of MVC or the bivalent compound, a cell death assay was performed at 24 h after treatment.

[8] = test system: HIV-1 in microglia; experiment: HIV-1 entry in microglia (data not shown); type: cell-based; settings: at the concentrations used (100 nM)
[9] = biological target: MOR (Homo sapiens (Human), UniProt P35372); experiment: Calcium mobilization assay, CCR5-MOR CHO co-expressed cell line (Gqi5), DAMGO-stimulated; type: cell-based
Procedure: (§5) Having a cell line that consistently expresses both CCR5 and MOR was essential for studying how the two receptors interact with each other using calcium mobilization assays and cell fusion assays. A previously established MOR Chinese hamster ovarian (CHO) cell line was transfected with a plasmid containing CCR5 tagged with a yellow fluorescent protein on its N-terminus (CCR5-YFP). ^1 After 48 hours cells were sorted based upon the presence of the yellow fluorescent protein tag using a flow cytometer. Cells containing the tagged receptors were then cultured and used in the subsequent assays.
(§6) Calcium mobilization is directly related to G protein-coupled receptor (GPCR) activation and therefore is a useful technique to study the functional activity of new ligands.

[10] = biological target: T1, CCR5 (Homo sapiens (Human), UniProt P51681); experiment: Calcium mobilization assay, CCR5-MOR CHO co-expressed cell line (Gqi5), RANTES-stimulated; type: cell-based; settings: cells stimulated with RANTES
Procedure: as §5, §6

[11] = biological target: CCR5 (Macaca mulatta (Rhesus macaque), UniProt P61813); experiment: CCR5 competitive radioligand binding, [125I]MIP-1α, Chem-1 cell membrane preparations; settings: mean of three experiments, read-out: Radioligand binding Ki ± SEM
Procedure: Afterwards, the pharmacological profile of bivalent ligand 1 at the chemokine receptor CCR5 was characterized similarly. The competitive radioligand binding assay was conducted in CCR5 rhesus macaque membrane preparations from Chem-1 cells.

[12] = biological target: T1, CCR5; experiment: RANTES-stimulated Ca2+ flux assay in Gqi5 transfected CCR5-MOLT-4 cells (Example 4); type: cell-based

T1 sequence (P51681 whole entry): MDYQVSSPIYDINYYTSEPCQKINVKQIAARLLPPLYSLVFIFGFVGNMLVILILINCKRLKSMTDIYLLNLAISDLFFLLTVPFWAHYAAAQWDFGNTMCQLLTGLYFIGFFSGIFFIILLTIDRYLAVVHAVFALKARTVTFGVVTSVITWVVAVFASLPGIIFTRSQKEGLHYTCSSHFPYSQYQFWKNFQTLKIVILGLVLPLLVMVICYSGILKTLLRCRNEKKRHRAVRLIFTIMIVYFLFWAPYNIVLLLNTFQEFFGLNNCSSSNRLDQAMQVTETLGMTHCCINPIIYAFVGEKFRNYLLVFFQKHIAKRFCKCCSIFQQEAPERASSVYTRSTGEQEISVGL

With `Cc1nnc(C(C)C)n1C1CC2CCC(C1)N2CC[C@H](NC(=O)C1CCC(F)(F)CC1)c1ccc(NC(=O)COCC(=O)NCCCCCCCNC(=O)COCC(=O)N[C@@H]2CC[C@@]3(O)[C@H]4Cc5ccc(O)c6c5[C@@]3(CCN4CC3CC3)[C@H]2O6)cc1` (stereo partly drawn) [bivalent ligand 1] the Emax [1] was 11.7 ± 1.2%, the “fold decrease in CCR5 expression levels compared to R5 HIV-1” value [2] was 1.8 fold and the “fold increase in astrocytes expressing both CCR5 and MOR compared to R5 HIV-1 alone” value [3] was 1.6 fold. For the same compound, the “fold decrease in TNF-α release compared to R5 HIV-1 alone” value [4] was 2.0 fold, the “fold decrease in IL-6 release compared to R5 HIV-1 alone” value [5] was 1.6 fold and the “fold decrease in RANTES release compared to R5 HIV-1 alone” value [6] was 1.5 fold. The astrocyte viability ([7]; 100 nM, HIV-1 ± morphine, 24 h) was “did not significantly affect the survival”, the “toxicity in the astrocytes, cytotoxicity assays (not shown)” value ([7]; Example 3) was “neither maraviroc nor 1 had any toxicity” and the “antiviral effect in microglia” value [8] was “only detected in astrocytes and not in microglia”. The IC50 [9] was 0.03 ± 0.00244 µM, the IC50 [10] was 6.24 ± 0.251 µM and the Ki [11] was 0.239 ± 0.056 µM. For the same compound, the “fold less potent than maraviroc in RANTES induced Ca2+ flux inhibition” value [12] was “approximately 60 fold”, the IC50 ([12]; RANTES stimulated, read-out: Ca2+ inhibition IC50 ± SEM) was 0.126 ± 0.028 µM and the CCR5 agonism ([12]; data not shown) was “no CCR5 agonism”.
